Experiments:
[1] = tested on: Botrytis cinerea; assay: Contact evaluation (microtiter plate); type: cell-based
Method: (§1) Compound solution: Contact evaluations were conducted to determine the anti-fungal activity of each compound against Botrytis cinerea, Sclerotinia sclerotiorum, Pythium aphanidermatum, Rhizoctonia solani, Cercospora arachidicola, Mycosphaerella fjiensis, and Monilinia laxa. Five milligrams of each compound were dissolved in 0.5 milliliter of DMSO for a compound stock solution of 1.0% w/v. Compound stock solutions were serial diluted with DMSO to 20, 10, and 2 ppm final well concentration. Fungi preparation: Botrytis cinerea spores were taken from 6-week-old cultures grown at 22C on full strength potato dextrous agar (PDA) plates. Sclerotinia sclerotiorum, Pythium aphanidermatum, Rhizoctonia solani, and Monilinia laxa mycelia were taken from 4- to 10-day-old shake flask cultures grown at room temperature on full strength potato dextrous broth (PDB). Cercospora arachidicola mycelia were taken from 10- to 14-day-old shake flask cultures grown at room temperature on a full strength PDB amended with peanut oil. Mycosphaerella fijiensis mycelia were taken from 10- to 14-day-old shake flask cultures grown at room temperature on V8 juice broth. Sclerotinia sclerotiorum, Pythium aphanidermatum, Rhizoctonia solani, Cercospora arachidicola, and Mycosphaerella fijiensis mycelia (0.4 g mycelia) were blended for 45 seconds in 20 mL sterile de-ionized water. Monilinia laxa mycelia (1 g mycelia) was blended for 45 seconds in 30 mL of sterile de-ionized water. Botrytis cinerea spores were diluted with quarter strength PDB to 1×10^5 spores/mL final well concentration. All mycelia were diluted in water (1:5 mycelia:water) before distributing into the wells. Microtiter plate preparation: Compound solution (10 :L), quarter strength PDB (900 :L) and fungi preparation (100 :L) were sequentially distributed into 48-well microtiter plates (n=3 replications/compound/rate). A blank consisted of quarter strength PDB and fungi preparation. Commercial fungicide controls (100 ppm diluted with water) consisted of Scala for Botrytis cinerea, Dithane F-45 for Mycosphaerella fijiensis, and Benlate for Sclerotinia sclerotiorum, Pythium aphanidermatum, Rhizoctonia solani, Cercospora arachidicola, and Monilinia laxa. Plates were shaken in a circular rotator at room temperature for 20 minutes, then incubated at 25C for 24 to 72 hours, depending on the pathogen. Fungal control ratings: Fungal growth in wells containing the compounds were compared to the positive control and fungal inhibition was rated as full, partial, or none. Final readings were the average of the three wells (Table 1).

[2] = tested on: Cercospora arachidicola; assay: Contact evaluation (microtiter plate); type: cell-based
Method: as §1

[3] = tested on: Monilinia laxa; assay: Contact evaluation (microtiter plate); type: cell-based
Method: as §1

[4] = tested on: Mycosphaerella fijiensis; assay: Contact evaluation (microtiter plate); type: cell-based
Method: as §1

[5] = tested on: Pythium aphanidermatum; assay: Contact evaluation (microtiter plate); type: cell-based
Method: as §1

[6] = tested on: Rhizoctonia solani; assay: Contact evaluation (microtiter plate); type: cell-based; settings: Rhizoctinia solani
Method: as §1

[7] = tested on: Sclerotinia sclerotiorum; assay: Contact evaluation (microtiter plate); type: cell-based; settings: Sclerotinia sclerotionum
Method: as §1

[8] = tested on: Botrytis cinerea; assay: Detached bean leaf bioassay, fungal control; type: in vivo; settings: 200 ppm, three days after inoculation, 100 minus percent necrotic area
Method: Compound solution: Compound solutions were prepared by diluting compound stock solutions (1.0% w/v compound in DMSO) to 200 ppm with 0.01% w/v Triton X-100. Spore solution preparation: Botrytis cinerea spores were taken from 6-week-old cultures grown at 22C on full strength potato dextrous agar (PDA) plates and harvested in 1:16 frozen orange juice concentrate:water. Botrytis cinerea spore solutions were prepared by diluting spore cultures to 5×10^4 spores/mL with 1:16 frozen orange juice concentrate:water. Plant material: Middle trifoliate leaves of greenhouse grown Phaseolus vulgaris (Bush bean cv. Blue Lake 274) were excised and placed on a plastic grid above a tray containing moist towels. Treatment method: One half of the adaxial surface of the leaf was treated with the compound solution (100 :L) using a 3 cm Bacti Cell Spreader. A blank consisted of 0.01% w/v Triton X-100. A commercial fungicide control (200 ppm diluted with water) consisted of Scala. […] Fungal control rating: Three days after inoculation with Botrytis, the percent necrotic area under the inoculation droplet was determined. Since the areas under the blank (0.01% w/v Triton X-100) were 100% infected, fungal control was expressed as 100 minus the percent necrotic area, and thus 0% infected is 100% fungal control (n=3 leaves/compound, 5 inoculation droplets/leaf, Table 2).

[9] = tested on: Phaseolus vulgaris (Bush bean cv. Blue Lake 274) leaves; assay: Detached bean leaf bioassay, phytotoxicity rating; type: in vivo; settings: 200 ppm, scale 0=no, 1=slight, 2=moderate, 3=excessive phytotoxicity
Method: Compound solution: Compound solutions were prepared by diluting compound stock solutions (1.0% w/v compound in DMSO) to 200 ppm with 0.01% w/v Triton X-100. Plant material: Middle trifoliate leaves of greenhouse grown Phaseolus vulgaris (Bush bean cv. Blue Lake 274) were excised and placed on a plastic grid above a tray containing moist towels. Treatment method: One half of the adaxial surface of the leaf was treated with the compound solution (100 :L) using a 3 cm Bacti Cell Spreader. A blank consisted of 0.01% w/v Triton X-100. A commercial fungicide control (200 ppm diluted with water) consisted of Scala. After the solutions dried, the trays containing the leaves were covered and held one day in a growth chamber (22C). The adaxial surfaces of the leaves were then inoculated with 5–60 :L droplets of Botrytis cinerea spore solution. Phytotoxicity ratings: Phytotoxicity was rated as 0=no phytotoxicity, 1=slight phytotoxicity, 2=moderate phytotoxicity, or 3=excessive phytotoxicity (Table 2).

## OCCc1c(Br)cc(Br)c2cccnc12 [Example 1, 5,7-dibromo-8-(2-hydroxyethyl)quinoline]
[1]; fungicide rate 2 ppm
  Control of fungi (full, partial, none): Partial
[1]; fungicide rate 10 ppm
  Control of fungi (full, partial, none): Full
[1]; fungicide rate 20 ppm
  Control of fungi (full, partial, none): Full
[2]; fungicide rate 2 ppm
  Control of fungi (full, partial, none): None
[2]; fungicide rate 10 ppm
  Control of fungi (full, partial, none): Full
[2]; fungicide rate 20 ppm
  Control of fungi (full, partial, none): Full
[3]; fungicide rate 2 ppm
  Control of fungi (full, partial, none): Full
[3]; fungicide rate 10 ppm
  Control of fungi (full, partial, none): Full
[3]; fungicide rate 20 ppm
  Control of fungi (full, partial, none): Full
[4]; fungicide rate 2 ppm
  Control of fungi (full, partial, none): Full
[4]; fungicide rate 10 ppm
  Control of fungi (full, partial, none): Full
[4]; fungicide rate 20 ppm
  Control of fungi (full, partial, none): Full
[5]; fungicide rate 2 ppm
  Control of fungi (full, partial, none): Full
[5]; fungicide rate 10 ppm
  Control of fungi (full, partial, none): Full
[5]; fungicide rate 20 ppm
  Control of fungi (full, partial, none): Full
[6]; fungicide rate 2 ppm
  Control of fungi (full, partial, none): Full
[6]; fungicide rate 10 ppm
  Control of fungi (full, partial, none): Full
[6]; fungicide rate 20 ppm
  Control of fungi (full, partial, none): Full
[7]; fungicide rate 2 ppm
  Control of fungi (full, partial, none): Full
[7]; fungicide rate 10 ppm
  Control of fungi (full, partial, none): Full
[7]; fungicide rate 20 ppm
  Control of fungi (full, partial, none): Full
[8]
  Botrytis cinerea control: 100%
[9]
  Phytotoxity: Slight
other
  melting point: 128 to 131 °C

Source: patent US7157408B2, “Quinoline fungicides” (Valent BioSciences Corporation, priority 2004, dated 2007)
